Results published in patent US10758468B2, “Solubilizer for cosmetic preparations” (Symrise AG, priority 2010, dated 2020).

Assay: Assessment of turbidity (transparency) of compositions at production and after 3 months storage
Conditions: water to 100; for Assessment of turbidity: Storage at 5° C. / Assessment of turbidity: Storage at 40° C.: after 3 months
[1] = 0.40 wt. % menthyl lactate, 2.00 Solubilizer U.53787M, 5.00 glycerol
[2] = 0.40 wt. % menthyl lactate, 2.00 Solubilizer U.53787M, 5.00 pentane-1,2-diol
[3] = 0.50 wt. % menthyl lactate, 2.00 Solubilizer B, 5.00 glycerol
[4] = 0.10 wt. % bisabolol, 2.00 Solubilizer U.53787M, 0.50 pentane-1,2-diol
[5] = 0.10 wt. % bisabolol, 2.00 Solubilizer U.53787M, 1.00 1,2-propylene glycol
[6] = 0.10 wt. % bisabolol, 2.00 Solubilizer U.53787M, 2.50 pentane-1,2-diol
[7] = 0.10 wt. % bisabolol, 2.00 Solubilizer U.53787M, 3.00 1,2-propylene glycol
[8] = 0.10 wt. % bisabolol, 2.00 Solubilizer U.53787M, 4.00 glycerol
[9] = 0.20 wt. % bisabolol, 2.00 Solubilizer A, 5.00 glycerol

Protocol: The transparency (clarity) of the compositions was determined after 3 months at the constant storage temperature stated in each case.

CC1CCC(C(C)C)C(OC(=O)C(C)O)C1 (stereo not shown) [Frescolat ® ML, menthyl lactate]
Assessment of turbidity: Production at 25° [1]: clear | Assessment of turbidity: Production at 25° [2]: clear | Assessment of turbidity: Production at 25° [3]: clear | Assessment of turbidity: Storage at 5° C. [1]: clear | Assessment of turbidity: Storage at 40° C. [1]: clear | Assessment of turbidity: Storage at 5° C. [2]: clear | Assessment of turbidity: Storage at 40° C. [2]: clear | Assessment of turbidity: Storage at 5° C. [3]: clear | Assessment of turbidity: Storage at 40° C. [3]: clear

CC(C)(C)C(=O)C(Oc1ccc(Cl)cc1)n1ccnc1 (stereo not shown) [Crinipan® AD, climbazole]
Amount of organic substance incorporated with the composition remaining clear and stable (framework formulation: 2.00 wt. % Solubilizer U.53787M, 5.00 glycerol, production at 25°, storage 3 months at 5° C. and 40° C.): 0.10 wt. %

CC(C)=CCC[C@](C)(O)C1CC=C(C)CC1 (stereo partly shown) [Bisabolol]
Assessment of turbidity: Production at 25° [4]: clear | Assessment of turbidity: Production at 25° [5]: clear | Assessment of turbidity: Production at 25° [6]: clear | Assessment of turbidity: Production at 25° [7]: clear | Assessment of turbidity: Production at 25° [8]: clear | Assessment of turbidity: Production at 25° [9]: clear | Assessment of turbidity: Storage at 5° C. [4]: clear | Assessment of turbidity: Storage at 40° C. [4]: clear | Assessment of turbidity: Storage at 5° C. [5]: clear | Assessment of turbidity: Storage at 40° C. [5]: clear | Assessment of turbidity: Storage at 5° C. [6]: clear | Assessment of turbidity: Storage at 40° C. [6]: clear | Assessment of turbidity: Storage at 5° C. [7]: clear | Assessment of turbidity: Storage at 40° C. [7]: clear | Assessment of turbidity: Storage at 5° C. [8]: clear | Assessment of turbidity: Storage at 40° C. [8]: clear | Assessment of turbidity: Storage at 5° C. [9]: clear | Assessment of turbidity: Storage at 40° C. [9]: clear
